From patent US9579406B2, “Phospholipid ether analogs as agents for detecting and locating cancer, and methods thereof” (Cellectar, Inc., priority 2004, dated 2017)
“Also recorded” adds a separate entry of the source. Read-outs that look alike come from different tables or passages of the source.

Tests used:
[1] = mouse; cited from earlier work
serum proteins = conditions: cited from earlier work
[2] = cited from earlier work
[3] = tested on: carrageenan-induced granulomas; experiment: Uptake in carrageenan-induced granulomas; parameters: species or system rats; conditions: rat, in vivo
From the text: This lack of specificity is a significant clinical issue in patients with cancer.

[4] = tested on: non-small cell lung cancer; conditions: human, in vivo
Description: (§1) The preparation dispensed by the Nuclear Pharmacy will be certified as sterile and pyrogen-free. The subject will be monitored for adverse reactions during and after the infusion. Vital signs will be checked immediately after the infusion, and at 60 minute intervals up to four hours post-injection. They will be observed for adverse events throughout this time. […] Vital signs will be monitored at these times. Any adverse reactions experienced by the subjects will be recorded.

[5] = tested on: non-small cell lung cancer; experiment: Planar gamma-camera scintigraphy with 131I-NM-404 in NSCLC patients; conditions: <1 mCi, n=3
Description: as §1

[6] = type: in vivo, human
[7] = MIRD extrapolation of rat tissue distribution data to permissible human dose; parameters: species or system human (from rat data)
From the text: Accordingly the inventors have conducted the preliminary pharmacokinetic studies in human lung cancer patients at 1 mCi. Similar extrapolative calculation of the dosimetry for ^124I-NM404 afforded a similar 2 mCi dose level again based on projected dosimetry to the adrenals and bladder wall. Preliminary human data (5 patients), however, indicate very little uptake and retention of the agent into any abdominal organ (including the bladder and adrenals) with the exception of the liver which returns to background levels within 11 days.
Dosing of radioiodinated ^124I NM404 will be based on MIRD extrapolation of the iodine-131 dosimetry data derived from this ongoing study. The ^131I-NM404 dose is currently calculated as follows: Animal biodistribution data is used to determine the percentage of injected dose/organ at varying time points. These animal data are extrapolated to man by means of MIRD formalism (MIRDOSE PC v3.1) using standard conversion factors for differences in organ mass and anatomy between rat and standard man, providing predicted human organ doses; Based on these predicted doses, the permissible mCi dose to be injected into humans is determined using the maximal doses legally permitted by RDRC regulations for specific human tissue as defined in the Federal Register (21CFR Part 361.1) e.g. whole body, blood, blood forming tissues, eye lens, gonads—3 rem/dose; any other tissue—5 rem/dose. This approach was previously used to bring both NM324 and NM404 to clinical use, resulting in a calculated dose of 1 mCi.

Phospholipase C (PLC) = biological target: T1, Phospholipase C (PLC) (Bacillus cereus, UniProt P09598); experiment: PLC substrate assay; type: biochemical
T1 construct: PLC isolated from Bacillus cereus; host or cells: Bacillus cereus (natural source)
Description: Formal metabolism studies were conducted on several PLE analogs including NM324, the predecessor of NM404. In these studies, each agent was examined to determine their ability to serve as substrates for enzymes associated with PLE metabolism. Three major enzymatic pathways are involved in the metabolism of PLE. O-Alkyl glycerol monooxygenase (AGMO) is responsible for cleavage of the alkyl ether linkage at C-1 to form either the long chain fatty alcohol or subsequently, the corresponding fatty acid. Phospholipases C (PLC) and D (PLD), on the other hand, give rise to the glycerol or phosphatidic acid products, respectively.

[8] = rats, cited from earlier work
MAT LyLu cells = experiment: Gamma camera scintigraphy in rat Dunning R3327 (MAT LyLu) prostate cancer model; conditions: tumor-bearing rats, 24 and 48 hours post injection
From the text: The MatLyLu (Dunning R3327 rat) model, a rat prostate tumor line, was used specifically to screen 9 specific analogs prior to entering them into control for dosimetry and tumor-bearing animals for determining tumor/background ratios.
In order to expedite the screening process and minimize the number of tumor bearing animals utilized in multiple time point tissue distribution studies, new radioiodinated homologs were imaged by gamma camera scintigraphy in the rat Dunning R3337 (MAT LyLu strain) prostate cancer model. […] Gamma camera images were obtained at multiple time points including 24 and 48 hours post injection.
The new PLE analogs were synthesized and radiolabeled with ^125I for initial image analysis in Copenhagen rats bearing Dunning R3327 prostate tumors.

[9] = tested on: several animal tumor models; experiment: Animal tumor localization studies with first generation PLE analogs; type: in vivo; conditions: iodine-125 labeled; Walker 256, Lewis mammary, Dunning R3327, Vx2, human xenografts
From the text: Phospholipid ethers can easily be labeled with iodine radioisotopes using radiolabeling methods developed in the labs. The iodophenyl phospholipid ether analogs are specifically designed so that the radioiodine affixed to each molecule is stable to facile in vivo deiodination. […] The inventors have now synthesized over 20 radiolabeled PLE compounds and tested in vitro and in vivo. […] Optimal tumor localization of these agents takes from one to several days due to the more rapid clearance of the radioactivity from normal tissues relative to tumor.

lung cancer = experiment: Initial clinical studies of NM-324 in lung cancer patients; type: in vivo, human; conditions: for liver radioactivity in patients: human, in vivo; for tumor uptake in cancer patients: scintigraphy
rat mammary tumor = experiment: Biodistribution in rat mammary tumor model; type: in vivo
Description: In one such example in a rat mammary tumor model, tumor-to-normal tissue ratios reached a maximum at 96 hours with a tumor-to-blood ratio of 8.6 and tumor-to-muscle ratio of 20:1.
Extensive biodistribution data for the prototype agent ^125I-NM324 in several tumor models has previously been reported. […] For example, in a rat mammary tumor model, tumor-to-normal tissue ratios reached a maximum at 96 hours with a tumor-to-blood ratio of 8.6 and tumor-to-muscle ratio of 20:1. […] Comparative biodistribution data for NM324 and NM404 in SCID mice have been obtained in prostate and A549 lung cancer tumor models.

[10] = Blood plasma kinetics in rats; type: in vivo; conditions: rat, read-out: elimination half life time in plasma (converted)
[11] = tested on: Walker-256 carcinosarcoma; experiment: Tissue distribution of radioactivity in rats bearing Walker-256 carcinosarcoma; type: in vivo, rat
[12] = tested on: A549 lung, PC-3 prostate, c-myc pancreatic tumors; experiment: microPET imaging in lung, prostate and pancreatic mouse tumor models; type: in vivo; conditions: any time point
From the text: Human pharmacokinetic studies have confirmed this finding as only 4% of the agent is cleared renally within 4 days of iv injection (majority is excreted via GI route).

CNS-1 glioma brain tumor = experiment: microPET imaging in rat CNS-1 brain tumor model; type: in vivo; conditions: 24 h after iv injection
Description: The inventors recently successfully radiolabeled NM404 twice with iodine-124 from a commercial vendor (Eastern Isotopes). The radiochemical yield (>60% mean isolated yield, >99% purity) was very similar to what we usually obtain with commercial sources of iodine-125 or 131 sodium iodide. The PET imaging characteristics of ^124I-NM404 in a rat CNS-1 brain tumor model (FIG. 24) was investigated. Imaging times in this preliminary study were limited to 24 h and 4 days post injection due to microPET scanner availability. […] These compounds may then be used for extending NM404 PET utility into human cancer patients.

T1 sequence (P09598 39-283 limits assumed): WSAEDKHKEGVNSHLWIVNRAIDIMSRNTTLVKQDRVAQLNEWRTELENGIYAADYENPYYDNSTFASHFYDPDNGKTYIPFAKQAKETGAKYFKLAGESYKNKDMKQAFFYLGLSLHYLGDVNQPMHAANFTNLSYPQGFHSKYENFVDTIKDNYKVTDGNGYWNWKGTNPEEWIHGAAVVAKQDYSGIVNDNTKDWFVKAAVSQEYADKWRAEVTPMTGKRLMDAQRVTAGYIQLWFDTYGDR

## CCCCCCCCCCCCCCCCCCOCC(COP(=O)([O-])OCC[N+](C)(C)C)OC (stereo not drawn) [ET-18-OCH3]
[1]
  LD50 (oral): 200 mg/kg
Serum proteins
  ether lipid bound to HDL: about 6%
  ether lipid bound to albumin: 71%
[2]; intravenous
  maximum tolerated dose: 50 mg/kg
[2]; up to 4 hours post-injection
  adverse effects reported: pulmonary edema impaired hepatic function and hemolysis

## O=C([O-])CC(O)(CC(=O)[O-])C(=O)[O-].[Ga+3] [Gallium citrate, reference compound]
[3]
  uptake and retention in granulomas: did indeed concentrate significantly in the granulomatous lesions

## C[N+](C)(C)CCOP(=O)([O-])OCCCCCCCCCCCCCCCCCCc1ccc([131I])cc1 [^131I-NM404]
[4]
  crossing of the blood brain barrier: doesn't cross the intact blood brain barrier
[5]
  tumor uptake and retention: tumor uptake and prolonged retention in the primary lung tumors
[6]; 5 patients
  time for liver to return to background levels: ≤ 11 days
[6]; advanced non-small cell lung cancer subjects
  dose level safe to administer: 0.3 µg/kg
[6]; first-in-human pharmacokinetic studies
  safety: safe
[7]
  starting maximum dose: around 1.9 mCi
[7]; 131I label
  5 Rad limiting dose to the adrenals and bladder wall: 2 mCi

## [3H]C(CCCCCC)C([3H])CCCCCCCC(=O)O[C@H](COC(=O)CCCCCCCCCCCCCCC)COP(=O)([O-])OCC[N+](C)(C)C (stereo partly drawn) [DPPC, 1-palmitoyl-2-[3H]-palmitoyl-L-3-phosphatidylcholine]
Phospholipase C (PLC)
  hydrolysis by PLC: underwent significant hydrolysis

## CCCCCCCCCCCCCCCCOP(=O)([O-])OCC[N+](C)(C)C [Miltefosine, hexadecyl phosphocholine]
[8]; over a 4-week period
  maximum tolerated dose: 39 nmol/kg
[8]
  LD50: 606 nmol/kg

## C[N+](C)(C)CCOP(=O)([O-])OCCCCCCCCCCCCc1ccc(I)cc1 [NM-346]
MAT LyLu cells
  tumor uptake and liver/abdominal radioactivity by gamma camera imaging: readily visualized

## C[N+](C)(C)CCOP(=O)([O-])OCCCCCCCCCCCCc1cccc(I)c1 [NM-324, 12-(3-iodophenyl)-dodecylphosphocholine]
[3]
  uptake and retention in granulomas: no uptake and retention
[9]
  tumor localization: selectively localized in tumors over time
Lung cancer
  liver radioactivity in patients: high liver radioactivity
  tumor uptake in cancer patients: excellent tumor uptake
Lung cancer; listed as NM324
  liver radioactivity in patients: unacceptable accumulation in liver tissue
Lung cancer; images 6 h post injection, lung cancer patient
  lung tumor uptake: intense lung tumor uptake
Lung cancer; listed as 131I-NM-324
  tumor uptake in cancer patients: Uptake is seen in the left lingular lung cancer (T) with increasing tumor-to-background ratios over time
Rat mammary tumor; 96 hours
  tumor-to-blood ratio: 8.6
Rat mammary tumor; rat, in vivo
  time of maximum tumor-to-normal tissue ratios: 96 h
[7]
  calculated dose for clinical use: 1 mCi
[10]
  half-life: 146 min

## C[N+](C)(C)CCOP(=O)([O-])OCCCCCCCCCCCCCCCc1ccc(I)cc1 [NM-397]
[11]; 24 h
  increase in tumor uptake versus C12 analog 4: 2 fold
[11]; 48 hours after administration
  radioactivity in the duodenum (maximum): 1.38±0.24 % ID/g
  radioactivity in the tumor (peak): 1.65±0.23 % of ID/g
[11]; 120 hours
  blood levels: 0.07±0.00 % of ID/g
[11]; after administration
  time of peak tumor radioactivity: 48 h
MAT LyLu cells
  tumor uptake and liver/abdominal radioactivity by gamma camera imaging: readily visualized

## C[N+](C)(C)CCOP(=O)([O-])OCCCCCCCCCCCCCCCCCCc1ccc([124I])cc1 [^124I-NM404]
[12]
  bladder activity: lack of bladder activity at any time point; also recorded: No bladder activity was evident at any time point
CNS-1 glioma brain tumor
  tracer uptake in brain tumor and surrounding brain: intense uptake of the tracer in the brain tumor accompanied by little or no uptake in surrounding intact brain tissue
[7]; 124I label
  dose level based on projected dosimetry to the adrenals and bladder wall: 2 mCi

## COC(COCCCCCCCCCCCCc1cccc([125I])c1)COP(=O)([O-])OCC[N+](C)(C)C (stereo not drawn) [NM-294]
[9]
  tumor localization: selectively localized in tumors over time

## C[N+](C)(C)CCOP(=O)([O-])OCCCOCCCCCCCCCCCCCCCCCCc1ccc(I)cc1 [NM-412, 1-O-[18-(p-Iodophenyl)octadecyl]-1,3-propanediol-3-phosphocholine]
MAT LyLu cells
  tumor uptake and liver/abdominal radioactivity by gamma camera imaging: high levels of liver and abdominal radioactivity; also recorded: tumor uptake accompanied by high liver and abdominal radioactivity levels
MAT LyLu cells; listed as 8
  tumor uptake and liver/abdominal radioactivity by gamma camera imaging: fairly high levels of liver and abdominal radioactivity

## C[N+](C)(C)CCOP(=O)([O-])OCCCCCCCc1ccc(I)cc1 [NM-396]
[11]; 24 hours
  radioactivity in all of the organs surveyed: < 0.10 % ID/g
  radioactivity in the thyroid: 213 % ID/g
[11]; all time points examined
  localization in tumor tissue: did not localize in tumor tissue at any of the time points examined

## COC(COCCCCCCCCCCCCCCCCCCc1ccc(I)cc1)COP(=O)([O-])OCC[N+](C)(C)C (racemic) [NM-410, 1-O-[18-(p-Iodophenyl)octadecyl]-2-O-methyl-rac-glycero-3-phosphocholine]
MAT LyLu cells
  tumor uptake and liver/abdominal radioactivity by gamma camera imaging: high hepatic uptake, significant abdominal accumulation and retention or poor tumor uptake and retention; also recorded: high radioactivity levels in the liver and abdomen with little to no uptake of the agent into tumors
MAT LyLu cells; listed as 10
  tumor uptake and liver/abdominal radioactivity by gamma camera imaging: retarded tumor uptake significantly
